# Assay results published in patent US10870630B2, “Substituted bicyclic heteroaryl allosteric modulators of nicotinic acetylcholine receptors” (Merck Sharp & Dohme Corp., priority 2016, dated 2020).
# Where two headings read alike, the source gives them in different places.
# Biological target: human α7 nicotinic acetylcholine receptor (α7 nAChR) (Homo sapiens, UniProt P36544)
# Test: Automated patch-clamp electrophysiology functional assay (Assay A)
# Format: cell-based
# Details: HEK cell line stably expressing human RIC-3 and human α7, IonFlux HT whole-cell population patch, 40 μM acetylcholine
# Procedure: The α7 nAChR positive allosteric modulator (PAM) activity of the present compounds may be tested using assays known in the art. The α7 nAChR PAMs described herein have activities in an automated patch-clamp electrophysiology functional assay as described in the examples. The assay was performed using the IonFlux HT in a whole-cell, population patch configuration. See Golden et al. Assay Drug Dev. Technol. (2011) 9:608-619. The compounds were assessed for their ability to modulate the function of the human […] nAChR stably expressed in a HEK cell line both in the presence, and in the absence of the natural 07 agonist acetylcholine. By performing a series of such measurements at different concentrations, the effective concentration of the α7 nAChR PAMs (EC50) was determined. See Spencer et al. Assay Drug Dev. Technol. (2012) 10:313-324.
# Automated patch-clamp electrophysiology was performed using the IonFlux HT (Fluxion Biosciences Inc., San Francisco, Calif.) in the whole-cell, population patch configuration. Test compounds were assessed for their ability to modulate the function of the α7 nicotinic acetylcholine receptor both in the presence, and in the absence of the natural α7 agonist acetylcholine. A HEK cell line stably expressing both human RIC-3 and human α7 (PrecisION hnAChR α7/RIC-3, Eurofins Pharma, St. Charles, Mo.) was cultured in 175 cm^2 triple-layer tissue culture flasks to no more than 90% confluency in DMEM/F-12 growth media supplemented with 10% heat-inactivated fetal bovine serum, 1% non-essential amino acids, 0.625 μg/mL Puromycin, and 400 μg/mL Geneticin. Immediately prior to assay, cells were detached by first aspirating growth media, rinsing with Dulbecco's phosphate buffered saline, and then adding 10 mL of Accutase (Innovative Cell Technologies, San Diego, Calif.) to the flask and then incubating at 37° C. for 5 minutes. Detached cells were then recovered by the addition of 40 mL of CHO-serum-free media supplemented with 25 mM HEPES, and rocked gently in a 50 mL conical tube for 20 minutes prior to patch-clamp assay. After recovery, cells were pelleted by centrifugation at 1,000 RPM for 1 minute in a compact bench top centrifuge; recovery media was aspirated and cells were resuspended in external recording solution (150 mM NaCl, 5 mM KCl, 2 mM CaCl2, 1 mM MgCl2, 10 mM HEPES, 12 mM dextrose) to a density of 5.0×10^6 cells/mL. The cell suspension was added to the cell inlet wells on an IonFlux HT population patch plate which had previously been rinsed and primed with deionized H2O. Test compounds were serially diluted in DMSO and then resuspended to the final test concentration in external recording solution, with, or without 40 μM acetylcholine added to the external recording solution; test compounds were then transferred to the IonFlux HT population patch plate. Internal recording solution (110 mM TrisPO4, 28 mM TrisBase, 0.1 mM CaCl2, 2 mM MgCl2, 11 mM EGTA, 4 mM MgATP) was added to the internal recording solution inlet wells on the IonFlux HT patch plate previously loaded with cells and test compounds, and the plate loaded into the IonFlux HT instrument. A protocol was executed on the IonFlux HT to trap the cells, break into the cells, and establish the whole-cell recording configuration; cells were voltage-clamped at a holding potential of −60 mV for the duration of the experiment, all experiments were conducted at room temperature, and the IonFlux HT injection pressure was 8 psi for solution applications. Upon establishing the whole-cell configuration, external recording solution was perfused into the recording chambers for 120 seconds and then 40 μM acetylcholine was applied for 1 second and immediately washed off with external recording solution for 60 seconds. The 40 μM acetylcholine-evoked α7 current served as the current response to which subsequent test compound effects, in the presence, or in the absence of 40 μM acetylcholine would be quantified relative to. […]
# Chain of human α7 nicotinic acetylcholine receptor (α7 nAChR) (P36544 23-502): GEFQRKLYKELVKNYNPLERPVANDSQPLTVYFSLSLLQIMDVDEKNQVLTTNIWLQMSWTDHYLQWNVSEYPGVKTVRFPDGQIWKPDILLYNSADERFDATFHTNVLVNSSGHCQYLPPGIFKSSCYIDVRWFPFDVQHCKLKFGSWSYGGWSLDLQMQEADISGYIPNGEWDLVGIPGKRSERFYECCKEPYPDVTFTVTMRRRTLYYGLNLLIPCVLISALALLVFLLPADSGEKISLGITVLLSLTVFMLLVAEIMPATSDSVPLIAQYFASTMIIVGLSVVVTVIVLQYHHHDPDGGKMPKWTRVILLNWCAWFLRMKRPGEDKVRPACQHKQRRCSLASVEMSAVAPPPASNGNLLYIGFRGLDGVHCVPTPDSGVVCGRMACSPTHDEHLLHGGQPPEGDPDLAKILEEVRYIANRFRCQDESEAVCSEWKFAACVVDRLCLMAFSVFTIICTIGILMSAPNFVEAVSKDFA
SMILES,EC50 (read-out: α7 nAChR EC50),EC50 (read-out: α7 nAChR Potency)
"NS(=O)(=O)c1ccc([C@H]2C[C@@H]2c2nc3ccc(F)cc3o2)cc1 [Example B7, 4-[(1 S,2S)-2-(6-Fluoro-1,3-benzoxazol-2-yl)cyclopropyl]benzenesulfonamide]",4200 nM,500 to 5000 nM
"CC1(C)[C@H](c2ccc(S(N)(=O)=O)cc2)[C@H]1c1ncc2c(n1)CCCC2 [Example 12, 4-[(R,3R)-2,2-Dimethyl-3-(5,6,7,8-tetrahydroquinazolin-2-yl)cyclopropyl]benzenesulfonamide]",2500 nM,500 to 5000 nM
"CC1(C)OC([C@@H]2[C@@H](c3ccc(S(N)(=O)=O)cc3)C2(F)F)=Nc2ccccc21 [Example D5, 4-[(1S,3S)-3-(4,4-Dimethyl-4H-3,1-benzoxazin-2-yl)-2,2-difluorocyclopropyl]benzenesulfonamide]",1100 nM,500 to 5000 nM
"CC1(C)[C@H](c2ccc(S(N)(=O)=O)cc2)[C@H]1c1nc2c(F)cc(F)cc2o1 [Example B1, 4-[(1R,3R)-3-(4,6-Difluoro-1,3-benzoxazol-2-yl)-2,2-dimethyl-cyclopropyl]benzenesulfonamide]",,100 to 500 nM
"NS(=O)(=O)c1ccc([C@H]2[C@H](c3nc4ccccc4s3)C2(F)F)cc1 [Example A8, 4-[(1R,3S)-3-(1,3-Benzothiazol-2-yl)-2,2-difluoro-cyclopropyl]benzenesulfonamide]",38 nM,≤ 100 nM
"Cn1ncc2cc(C3CC3c3ccc(S(N)(=O)=O)cc3)ccc21 (racemic) [Example E9, 4-[2-(1-Methylindazol-5-yl)cyclopropyl]benzenesulfonamide]",2800 nM,500 to 5000 nM
"CC1(C)[C@H](c2ccc(S(N)(=O)=O)cc2)[C@H]1c1nc2ccncc2o1 [Example D2, 4-[(1R,3R)-2,2-Dimethyl-3-oxazolo[5,4-c]pyridin-2-yl-cyclopropyl]benzenesulfonamide]",3400 nM,500 to 5000 nM
"NS(=O)(=O)c1ccc(C2CC2c2ccc3ccncc3n2)cc1 (racemic) [Example E8, 4-[2-(1,7-Naphthyridin-2-yl)cyclopropyl]benzenesulfonamide]",,500 to 5000 nM
"NS(=O)(=O)c1ccc([C@@H]2C[C@H]2c2nc3ccccc3o2)cc1 [Example 5, 4-[(1R,2R)-2-(1,3-Benzoxazol-2-yl)cyclopropyl]benzenesulfonamide]",160 nM,100 to 500 nM
"CC1(C)[C@@H](c2ccc(S(N)(=O)=O)cc2)[C@@H]1c1ncc2ccccc2n1 [Example C1, 4-[(1S,3S)-2,2-Dimethyl-3-quinazolin-2-yl-cyclopropyl]benzenesulfonamide]",1400 nM,500 to 5000 nM
"NS(=O)(=O)c1ccc([C@@H]2C[C@H]2c2ncc3ccccc3n2)cc1 [Example 3, 4-[(1R,2R)-2-(Quinazolin-2-yl)cyclopropyl]benzenesulfonamide]",370 nM,100 to 500 nM
"NS(=O)(=O)c1ccc([C@@H]2[C@@H](c3nc4ccccc4o3)C2(F)F)cc1 [Example B11, 4-[(1S,3S)-3-(1,3-Benzoxazol-2-yl)-2,2-difluoro-cyclopropyl]benzenesulfonamide]",430 nM,100 to 500 nM
"CC1(C)[C@H](c2ccc(S(N)(=O)=O)cc2)[C@H]1c1nc2ccccc2o1 [Example 1, 4-[(1R,3R)-3-(1,3-Benzoxazol-2-yl)-2,2-dimethylcyclopropyl]benzenesulfonamide]",620 nM,500 to 5000 nM
"CC1(C)[C@@H](c2ccc(S(N)(=O)=O)cc2)[C@@H]1c1nc2cc(Cl)ccc2o1 [Example A6, 4-[(1S,3S)-3-(5-Chloro-1,3-benzoxazol-2-yl)-2,2-dimethyl-cyclopropyl]benzenesulfonamide]",430 nM,100 to 500 nM
"NS(=O)(=O)c1ccc([C@H]2[C@H](c3nc4ccccc4[nH]3)C2(F)F)cc1 [Example A9, 4-[(1R,3R)-3-(1H-Benzimidazol-2-yl)-2,2-difluorocyclopropyl]benzenesulfonamide]",,500 to 5000 nM
"NS(=O)(=O)c1ccc([C@@H]2C[C@H]2c2nc3ccc(F)cc3o2)cc1 [Example A2, 4-[(1R,2R)-2-(6-Fluoro-1,3-benzoxazol-2-yl)cyclopropyl]benzenesulfonamide]",60 nM,≤ 100 nM
"CC1(C)[C@H](c2ccc(S(N)(=O)=O)cc2)[C@H]1c1nc2c(o1)CCCC2 [Example D3, 4-[(1R,3R)-2,2-Dimethyl-3-(4,5,6,7-tetrahydro-1,3-benzoxazol-2-yl)cyclopropyl]benzenesulfonamide]",,500 to 5000 nM
"COc1cccc2oc([C@H]3[C@H](c4ccc(S(N)(=O)=O)cc4)C3(C)C)nc12 [Example A1, 4-[(1S,3S)-3-(4-Methoxy-1,3-benzoxazol-2-yl)-2,2-dimethyl-cyclopropyl]benzenesulfonamide]",830 nM,500 to 5000 nM
"NS(=O)(=O)c1ccc([C@H]2[C@H](c3nc4c(o3)CCCC4)C2(F)F)cc1 [Example C4, 4-[(1R,3R)-2,2-Difluoro-3-(4,5,6,7-tetrahydro-1,3-benzoxazol-2-yl)cyclopropyl]benzenesulfonamide]",,500 to 5000 nM
"NS(=O)(=O)c1ccc(C2CC2c2ccc3nccnc3c2)cc1 (racemic) [Example E4, 4-(2-Quinoxalin-6-ylcyclopropyl)benzenesulfonamide]",,500 to 5000 nM
"CC1(C)[C@H](c2ccc(S(N)(=O)=O)cc2)[C@H]1c1nc2cccnc2o1 [Example 6, 4-[(1R,3R)-2,2-Dimethyl-3-([1,3]oxazolo[5,4-b]pyridin-2-yl)cyclopropyl]benzenesulfonamide]",3400 nM,500 to 5000 nM
"CC1(C)[C@H](c2ccc(S(N)(=O)=O)cc2)[C@H]1c1ncc2ccccc2n1 [Example D1, 4-[(1R,3R)-2,2-Dimethyl-3-quinazolin-2-yl-cyclopropyl]benzenesulfonamide]",7200 nM,5000 to 50000 nM
"NS(=O)(=O)c1ccc([C@@H]2[C@@H](c3nc4ccccc4s3)C2(F)F)cc1 [Example B12, 4-[(1S,3R)-3-(1,3-Benzothiazol-2-yl)-2,2-difluoro-cyclopropyl]benzenesulfonamide]",,100 to 500 nM
"CC1(C)[C@H](c2ccc(S(N)(=O)=O)cc2)[C@H]1c1nc2cc(Cl)ccc2o1 [Example B6, 4-[(1R,3R)-3-(5-Chloro-1,3-benzoxazol-2-yl)-2,2-dimethyl-cyclopropyl]benzenesulfonamide]",200 nM,100 to 500 nM
"CC1(C)[C@H](c2ccc(S(N)(=O)=O)cc2)[C@H]1c1cn2ncccc2n1 [Example 8, 4-((1R,3R)-3-(Imidazo[1,2-b]pyridazin-2-yl)-2,2-dimethylcyclopropyl)benzenesulfonamide]",3800 nM,500 to 5000 nM
"NS(=O)(=O)c1ccc(C2CC2c2cc3n(n2)CCCC3)cc1 (racemic) [Example E10, 4-[2-(4,5,6,7-Tetrahydropyrazolo[1,5-a]pyridin-2-yl)cyclopropyl]benzenesulfonamide]",,5000 to 50000 nM
"NS(=O)(=O)c1ccc(C2CC2c2cnc3occc3c2)cc1 (racemic) [Example E11, 4-(2-Furo[2,3-b]pyridin-5-ylcyclopropyl)benzenesulfonamide]",,500 to 5000 nM
"NS(=O)(=O)c1ccc([C@H]2[C@H](c3nc4ccccc4o3)C2(F)F)cc1 [Example A7, 4-[(1R,3R)-3-(1,3-Benzoxazol-2-yl)-2,2-difluoro-cyclopropyl]benzenesulfonamide]",52 nM,≤ 100 nM
